Patent publication US20240124456A1, “AZA-ERGOLINE DERIVATIVE AND PREPARATION METHOD THEREFOR AND APPLICATION THEREOF” (SHANGHAITECH UNIVERSITY, priority 2021, published 2024)

What was measured:
[1] = biological target: 5-HT2A receptor (Homo sapiens (Human), UniProt P28223); assay: Radioligand competition binding, affinity for 5-HT2A receptor ([3H]-ketanserin); settings: for binding selectivity, dopamine D2 receptor versus 5-HT2A receptor: Table 3 compared with Table 1; for Ki: [3H]-ketanserin, HEK-293T membranes
5-HT2A receptor, sequence (P28223 whole entry): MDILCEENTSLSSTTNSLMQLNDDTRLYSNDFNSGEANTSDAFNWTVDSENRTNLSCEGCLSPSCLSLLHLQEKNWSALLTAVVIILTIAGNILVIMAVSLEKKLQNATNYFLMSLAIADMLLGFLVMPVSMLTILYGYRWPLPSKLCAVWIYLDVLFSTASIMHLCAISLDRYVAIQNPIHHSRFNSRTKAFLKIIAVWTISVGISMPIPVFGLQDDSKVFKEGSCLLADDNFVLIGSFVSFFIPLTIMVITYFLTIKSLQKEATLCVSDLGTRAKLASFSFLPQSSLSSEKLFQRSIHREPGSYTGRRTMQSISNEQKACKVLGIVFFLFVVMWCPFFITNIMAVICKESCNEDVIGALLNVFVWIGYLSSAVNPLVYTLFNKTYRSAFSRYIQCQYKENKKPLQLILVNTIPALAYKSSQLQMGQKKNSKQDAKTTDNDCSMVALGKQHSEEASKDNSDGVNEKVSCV
Method: The affinity of the compounds of the present invention for the 5-HT2A receptors was determined by the method of radioligand competition experiment. In the first step, a cell membrane component containing specific 5-HT2A receptor was prepared. A 10 cm dish was used for transfection with 10 ng of the 5-HT2A receptor and 40 μL of PEI. […] A vacuum pump was used to suck off the culture medium, 3 mL of lysis buffer was added to each well, and the cells were placed in a 4° C. freezer for 10 minutes. After the cells were detached, the cells were transferred to a 15 mL centrifuge tube and centrifuged at 1500 rpm for 5 minutes at 4° C., and the supernatant was discarded. The cell pellet was transferred to a tissue homogenizer, and 3 mL of lysis buffer was added and fully ground until the cells were broken. Then, cell suspension was equally divided into several EP tubes, centrifuged at 4° C. and 12000 rpm for 5 min, and the supernatant was discarded. The precipitate was the cell membrane component containing the 5-HT2A receptor. […] First, a standard binding buffer was added to the cell membrane component containing the 5-HT2A receptor, and the cell membrane was disrupted and resuspended with an electric tissue homogenizer. 30 μL of membrane protein suspension was added to each well of a 96-well plate. Then, 30 μL of different drugs were added to the 96-well plate from left to right to ensure that the final drug concentrations were 10^−5 M, 10^−6 M, 10^−7 M, 10^−8 M, 10^−9 M and 0 M, with two replicates per treatment. Next, 30 μL [^3H]-ketanserin was added to each well of the 96-well plate. The plate was incubated for 2 hours at room temperature in the dark. Detection. The machine reading value reflected the amount of [^3H]-ketanserin bound on the membrane, and after further data processing, the affinity Ki value of different compounds for 5-HT2A receptor was obtained.

[2] = biological target: T1, dopamine D2 receptors (Homo sapiens (Human), UniProt P14416); assay: G protein Gαi1-γ9 dissociation BRET, dopamine D2 receptor functional activity; format: cell-based; settings: for EC50: HEK-293T, I-1 to 19 n=3, I-20 to 27 single determination, read-out: Gai1 BRET EC50; for Emax: relative to the endogenous ligand dopamine, read-out: Gai1 BRET Emax % ± SEM
T1 sequence (P14416 whole entry): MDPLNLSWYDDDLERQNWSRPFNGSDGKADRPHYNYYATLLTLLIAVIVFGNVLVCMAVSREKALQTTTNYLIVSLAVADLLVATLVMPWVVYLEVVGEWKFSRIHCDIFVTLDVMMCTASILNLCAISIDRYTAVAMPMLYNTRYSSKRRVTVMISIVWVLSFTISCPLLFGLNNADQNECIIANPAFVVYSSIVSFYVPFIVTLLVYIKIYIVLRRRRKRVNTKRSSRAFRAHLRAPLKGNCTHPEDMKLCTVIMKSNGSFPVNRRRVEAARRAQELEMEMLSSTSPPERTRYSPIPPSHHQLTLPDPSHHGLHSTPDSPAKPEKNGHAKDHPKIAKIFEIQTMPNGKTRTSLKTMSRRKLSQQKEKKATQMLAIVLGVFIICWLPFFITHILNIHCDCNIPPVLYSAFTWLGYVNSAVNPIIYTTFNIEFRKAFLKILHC

[3] = biological target: T1, dopamine D2 receptors; assay: β-arrestin2 recruitment BRET, dopamine D2 receptor functional activity; format: cell-based; settings: for EC50: HEK-293T, I-1 to 19 n=3, I-20 to 27 single determination, read-out: β-arrestin2 BRET EC50; for Emax: relative to the endogenous ligand dopamine, read-out: β-arrestin2 BRET Emax % ± SEM

O=c1ccc2ccc(OCCCCN3CCN4c5cccc6[nH]cc(c56)CC4C3)cc2[nH]1 (racemic) [Compound I-2, 7-(4(4,6,6a,7,9,10-hexahydro-8H-pyrazino[1,2-a]pyrrolo[4,3,2-de]quinolin-8-yl)butoxy)quinolin-2(1H)-one]
binding selectivity, dopamine D2 receptor versus 5-HT2A receptor [1]: more than 100 times | Ki [1]: 907 nM | EC50 [2]: 14.8 nM | Emax [2]: 101% | EC50 [3]: 49 nM | Emax [3]: 103%

CN(C)C(=O)N[C@H]1CC[C@H](CCN2CCN3c4cccc5[nH]cc(c45)C[C@@H]3C2)CC1 [(+)-I-10]
affinity for 5-HT2A receptor (in words) [1]: very weak affinity | Ki [1]: 2480 nM | EC50 [2]: 9.55 nM | Emax [2]: 86% | EC50 [3]: 5.25 nM | Emax [3]: 90%

O=C1CCc2ccc(OCCCCN3CCN4c5cccc6[nH]cc(c56)CC4C3)cc2N1 (centres unmarked) [Compound I-1, 7-(4(4,6,6a,7,9,10-hexahydro-8H-pyrazino[1,2-a]pyrrolo[4,3,2-de]quinolin-8-yl)butoxy)-3,4-dihydroquinolin-2(1H)-one]
affinity for 5-HT2A receptor (in words) [1]: very weak affinity | binding selectivity, dopamine D2 receptor versus 5-HT2A receptor [1]: more than 100 times | Ki [1]: 3640 nM | EC50 [2]: 16.2 nM | Emax [2]: 100% | EC50 [3]: 56.2 nM | Emax [3]: 100%

CN(C)C(=O)N[C@H]1CC[C@H](CCN2CCN3c4cccc5[nH]cc(c45)C[C@H]3C2)CC1 [(−)-I-10]
affinity for 5-HT2A receptor (in words) [1]: very weak affinity | binding selectivity, dopamine D2 receptor versus 5-HT2A receptor [1]: more than 100 times | Ki [1]: 2630 nM | EC50 [2]: 1.38 nM | Emax [2]: 78% | EC50 [3]: 2.75 nM | Emax [3]: 89%
